Tests used:
Format in all cases: in vivo, human
[1] = system: central memory T cells; test: Cultured IFN-γ ELISPOT after 10-day in vitro stimulation of PBMC, phase 1/2 NSCLC trial of OSE-2101; design: key to net SFC of vaccine positive CTL responses: —, indicates SFC response did not meet criteria and vaccine response was negative; conditions: for Mean SFC / No. Positive Responses: 6 NSCLC patients
Method in brief: (§1)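 Patient PBMC (pre-treatment, Week 9, Week 18, after s.c. dosing every 3 weeks) were stimulated 10 days with 10 μg/ml of each epitope plus rIL-2 10 U/ml on days 1, 4 and 7. Cells were then tested 20 h with irradiated autologous PBMC and 10 μg/ml vaccine or wild-type peptide. Net SFC per 5×10^4 cells, irrelevant HBV peptide subtracted.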

[2] = system: central memory T cells; test: Cultured IFN-γ ELISPOT after 10-day in vitro stimulation of PBMC, phase 1/2 colon cancer trial of OSE-2101; design: key to net SFC of vaccine positive CTL responses: —, indicates SFC response did not meet criteria and vaccine response was negative; conditions: for Mean SFC: 10 colon patients
Method in brief: as §1

[3] = system: central memory T cells; test: Central memory T cell cultured ELISPOT, phase 2 trial in advanced NSCLC
Method in brief: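 Patient PBMC were pre-stimulated for 10 days with 10 μg/ml peptide plus rIL2 (10 U/ml, days 1, 4, 7), then replated at 5×10^4/well with irradiated autologous PBMC and 10 μg/ml peptide, and SFC were counted. A response was positive if >5 SFC above, and > mean+2 SD of, the irrelevant HBV epitope, and twofold the pre-vaccination response plus 2 SD.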

Sequence: KVFGSLAFV [HER2.369L2V9 A]
- Mean SFC ([1]; Week 9): 84.3 SFC per 50,000 cells
- No. Positive Responses ([1]; Week 9): 1
- Mean SFC ([1]; Week 18): 109.3 SFC per 50,000 cells
- No. Positive Responses ([1]; Week 18): 4
- net SFC of vaccine positive CTL responses ([1]; NSCLC patient 201, Week 9): —
- net SFC of vaccine positive CTL responses ([1]; NSCLC patient 201, Week 18): —
- net SFC of vaccine positive CTL responses ([1]; NSCLC patient 502, Week 9): —
- net SFC of vaccine positive CTL responses ([1]; NSCLC patient 502, Week 18): —
- net SFC of vaccine positive CTL responses ([1]; NSCLC patient 504, Week 9): 84.3 SFC per 50,000 cells
- net SFC of vaccine positive CTL responses ([1]; NSCLC patient 504, Week 18): 284.0 SFC per 50,000 cells
- net SFC of vaccine positive CTL responses ([1]; NSCLC patient 505, Week 9): —
- net SFC of vaccine positive CTL responses ([1]; NSCLC patient 505, Week 18): 53.0 SFC per 50,000 cells
- net SFC of vaccine positive CTL responses ([1]; NSCLC patient 532, Week 9): —
- net SFC of vaccine positive CTL responses ([1]; NSCLC patient 532, Week 18): 78.3 SFC per 50,000 cells
- net SFC of vaccine positive CTL responses ([1]; NSCLC patient 651, Week 9): —
- net SFC of vaccine positive CTL responses ([1]; NSCLC patient 651, Week 18): 22.0 SFC per 50,000 cells
- Mean SFC ([2]; Week 9): 120.8 SFC per 50,000 cells
- Mean SFC ([2]; Week 18): 315.7 SFC per 50,000 cells
- net SFC of vaccine positive CTL responses ([2]; colon patient 551, Week 9): 134.7 SFC per 50,000 cells
- net SFC of vaccine positive CTL responses ([2]; colon patient 551, Week 18): 80.7 SFC per 50,000 cells
- net SFC of vaccine positive CTL responses ([2]; colon patient 601, Week 9): 112.7 SFC per 50,000 cells
- net SFC of vaccine positive CTL responses ([2]; colon patient 601, Week 18): 52.3 SFC per 50,000 cells
- net SFC of vaccine positive CTL responses ([2]; colon patient 602, Week 9): —
- net SFC of vaccine positive CTL responses ([2]; colon patient 602, Week 18): —
- net SFC of vaccine positive CTL responses ([2]; colon patient 603, Week 9): 30.0 SFC per 50,000 cells
- net SFC of vaccine positive CTL responses ([2]; colon patient 603, Week 18): —
- net SFC of vaccine positive CTL responses ([2]; colon patient 604, Week 9): 88.3 SFC per 50,000 cells
- net SFC of vaccine positive CTL responses ([2]; colon patient 604, Week 18): 314.7 SFC per 50,000 cells
- net SFC of vaccine positive CTL responses ([2]; colon patient 605, Week 9): 32.7 SFC per 50,000 cells
- net SFC of vaccine positive CTL responses ([2]; colon patient 605, Week 18): 33.7 SFC per 50,000 cells
- net SFC of vaccine positive CTL responses ([2]; colon patient 606, Week 9): —
- net SFC of vaccine positive CTL responses ([2]; colon patient 606, Week 18): 71.0 SFC per 50,000 cells
- net SFC of vaccine positive CTL responses ([2]; colon patient 607, Week 9): 389.3 SFC per 50,000 cells
- net SFC of vaccine positive CTL responses ([2]; colon patient 607, Week 18): 1642.7 SFC per 50,000 cells
- net SFC of vaccine positive CTL responses ([2]; colon patient 608, Week 9): —
- net SFC of vaccine positive CTL responses ([2]; colon patient 608, Week 18): —
- net SFC of vaccine positive CTL responses ([2]; colon patient 609, Week 9): 58.0 SFC per 50,000 cells
- net SFC of vaccine positive CTL responses ([2]; colon patient 609, Week 18): 14.7 SFC per 50,000 cells
- % of patients with positive CTL/central memory T cell response ([3]; phase 2, month 9): 29%
- patients with positive CTL/central memory T cell response / patients tested ([3]; phase 2, month 9): 2/7
- % of patients with positive CTL/central memory T cell response ([3]; phase 2, month 12): 50%
- patients with positive CTL/central memory T cell response / patients tested ([3]; phase 2, month 12): 2/4
- % of patients with positive CTL/central memory T cell response ([3]; phase 2, week 9): 42%
- patients with positive CTL/central memory T cell response / patients tested ([3]; phase 2, week 9): 14/33
- % of patients with positive CTL/central memory T cell response ([3]; phase 2, week 18): 44%
- patients with positive CTL/central memory T cell response / patients tested ([3]; phase 2, week 18): 14/32
- % of patients with positive CTL/central memory T cell response ([3]; phase 2, week 30): 57%
- patients with positive CTL/central memory T cell response / patients tested ([3]; phase 2, week 30): 13/23

Sequence: KLBPVQLWV [p53.139L2B3 A]
- Mean SFC ([1]; Week 9): 25.9 SFC per 50,000 cells
- No. Positive Responses ([1]; Week 9): 3
- Mean SFC ([1]; Week 18): 62.0 SFC per 50,000 cells
- No. Positive Responses ([1]; Week 18): 4
- net SFC of vaccine positive CTL responses ([1]; NSCLC patient 201, Week 9): —
- net SFC of vaccine positive CTL responses ([1]; NSCLC patient 201, Week 18): —
- net SFC of vaccine positive CTL responses ([1]; NSCLC patient 502, Week 9): —
- net SFC of vaccine positive CTL responses ([1]; NSCLC patient 502, Week 18): —
- net SFC of vaccine positive CTL responses ([1]; NSCLC patient 504, Week 9): 18.7 SFC per 50,000 cells
- net SFC of vaccine positive CTL responses ([1]; NSCLC patient 504, Week 18): 90.3 SFC per 50,000 cells
- net SFC of vaccine positive CTL responses ([1]; NSCLC patient 505, Week 9): —
- net SFC of vaccine positive CTL responses ([1]; NSCLC patient 505, Week 18): 20.3 SFC per 50,000 cells
- net SFC of vaccine positive CTL responses ([1]; NSCLC patient 532, Week 9): 53.0 SFC per 50,000 cells
- net SFC of vaccine positive CTL responses ([1]; NSCLC patient 532, Week 18): 117.3 SFC per 50,000 cells
- net SFC of vaccine positive CTL responses ([1]; NSCLC patient 651, Week 9): 6.0 SFC per 50,000 cells
- net SFC of vaccine positive CTL responses ([1]; NSCLC patient 651, Week 18): 20.0 SFC per 50,000 cells
- Mean SFC ([2]; Week 9): 70.5 SFC per 50,000 cells
- Mean SFC ([2]; Week 18): 89.4 SFC per 50,000 cells
- net SFC of vaccine positive CTL responses ([2]; colon patient 551, Week 9): —
- net SFC of vaccine positive CTL responses ([2]; colon patient 551, Week 18): —
- net SFC of vaccine positive CTL responses ([2]; colon patient 601, Week 9): 129.0 SFC per 50,000 cells
- net SFC of vaccine positive CTL responses ([2]; colon patient 601, Week 18): 96.0 SFC per 50,000 cells
- net SFC of vaccine positive CTL responses ([2]; colon patient 602, Week 9): —
- net SFC of vaccine positive CTL responses ([2]; colon patient 602, Week 18): 22.7 SFC per 50,000 cells
- net SFC of vaccine positive CTL responses ([2]; colon patient 603, Week 9): 85.3 SFC per 50,000 cells
- net SFC of vaccine positive CTL responses ([2]; colon patient 603, Week 18): —
- net SFC of vaccine positive CTL responses ([2]; colon patient 604, Week 9): 41.0 SFC per 50,000 cells
- net SFC of vaccine positive CTL responses ([2]; colon patient 604, Week 18): 188.7 SFC per 50,000 cells
- net SFC of vaccine positive CTL responses ([2]; colon patient 605, Week 9): 9.7 SFC per 50,000 cells
- net SFC of vaccine positive CTL responses ([2]; colon patient 605, Week 18): 44.7 SFC per 50,000 cells
- net SFC of vaccine positive CTL responses ([2]; colon patient 606, Week 9): 43.7 SFC per 50,000 cells
- net SFC of vaccine positive CTL responses ([2]; colon patient 606, Week 18): 37.7 SFC per 50,000 cells
- net SFC of vaccine positive CTL responses ([2]; colon patient 607, Week 9): 114.3 SFC per 50,000 cells
- net SFC of vaccine positive CTL responses ([2]; colon patient 607, Week 18): 146.7 SFC per 50,000 cells
- net SFC of vaccine positive CTL responses ([2]; colon patient 608, Week 9): —
- net SFC of vaccine positive CTL responses ([2]; colon patient 608, Week 18): —
- net SFC of vaccine positive CTL responses ([2]; colon patient 609, Week 9): —
- net SFC of vaccine positive CTL responses ([2]; colon patient 609, Week 18): —
- % of patients with positive CTL/central memory T cell response ([3]; phase 2, month 9): 29%
- patients with positive CTL/central memory T cell response / patients tested ([3]; phase 2, month 9): 2/7
- % of patients with positive CTL/central memory T cell response ([3]; phase 2, month 12): 50%
- patients with positive CTL/central memory T cell response / patients tested ([3]; phase 2, month 12): 2/4
- % of patients with positive CTL/central memory T cell response ([3]; phase 2, week 9): 55%
- patients with positive CTL/central memory T cell response / patients tested ([3]; phase 2, week 9): 6/11
- % of patients with positive CTL/central memory T cell response ([3]; phase 2, week 18): 36%
- patients with positive CTL/central memory T cell response / patients tested ([3]; phase 2, week 18): 4/11
- % of patients with positive CTL/central memory T cell response ([3]; phase 2, week 30): 50%
- patients with positive CTL/central memory T cell response / patients tested ([3]; phase 2, week 30): 3/6

— patent publication US11191820B2, “Method for inducing early T memory response with short peptides anti-tumor vaccine” (OSE IMMUNOTHERAPEUTICS, priority 2015, dated 2021)
